Data on 28 molecules can be found in patent US11884675B2, “Heterocyclic compounds as triggering receptor expressed on myeloid cells 2 agonists and methods of use” (AMGEN INC., priority 2020, dated 2024).

The test has as its target hTREM2 (Homo sapiens, UniProt Q9NZC2). Put plainly: TREM2 activity by cellular Syk phosphorylation (AlphaScreen/AlphaLISA) in TREM2/DAP12-HEK cells, used for Examples 1-305. Set-up: expressed in transfected cells. The conditions noted are these: HEK293 Cells. In kind it is cell-based. An outline of the steps: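 Phospho-Syk (Tyr525/526) over total Syk quantified by AlphaScreen in lysates of cloned TREM2/DAP12-overexpressing HEK293 cells after 45 min compound treatment at room temperature, 1% final DMSO. Values expressed relative to 100 nM anti-TREM2 antibody (positive) and isotype IgG (negative) controls; curves fitted with 4-parameter logistic model.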
(Alpha assays give light when donor and acceptor beads are brought close together.)

By EC50 is commonly meant the concentration that produces a half-maximal response.

Chain of hTREM2 (Q9NZC2 19-230): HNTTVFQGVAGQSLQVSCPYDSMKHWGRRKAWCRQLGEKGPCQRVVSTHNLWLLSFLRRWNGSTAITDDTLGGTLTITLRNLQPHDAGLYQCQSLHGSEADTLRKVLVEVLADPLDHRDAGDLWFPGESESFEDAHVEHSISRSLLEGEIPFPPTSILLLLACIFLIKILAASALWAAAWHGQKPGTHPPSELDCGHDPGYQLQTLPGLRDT
Chain of hTREM2 (O43914 22-113 partner): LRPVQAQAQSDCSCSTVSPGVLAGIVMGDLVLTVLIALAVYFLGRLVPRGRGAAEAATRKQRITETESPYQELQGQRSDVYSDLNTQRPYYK

In the case of `Cc1cc([C@H]2CN(c3nc(C45CC(C(F)(F)F)(C4)C5)c4ccc(C)nc4n3)CCO2)ccn1` [Example 102, 7-methyl-2-((2S)-2-(2-methyl-4-pyridinyl)-4-morpholinyl)-4-(3-(trifluoromethyl)bicyclo[1.1.1]pentan-1-yl)pyrido[2,3-d]pyrimidine], the EC50 was not above 50 nM; the “hTREM2 Emax” value is “+ (Emax>45 and ≤100)”.

`Cc1ccc2c(-c3ccc(F)cc3F)nc(N3CCO[C@@H](c4cnn(C5CC5)c4)C3)nc2n1` [Example 92, 2-((2S)-2-(1-cyclopropyl-1H-pyrazol-4-yl)-4-morpholinyl)-4-(2,4-difluorophenyl)-7-methylpyrido[2,3-d]pyrimidine]: the EC50 was not above 50 nM; the “hTREM2 Emax” value was “+++ (Emax>150 and ≤250)”.

Turning to `Cc1nc2nc(N3CCO[C@@H](c4cnn(C)c4)C3)nc(-c3ccc(C(F)(F)F)nc3)c2nc1C` [Example 19, 6,7-dimethyl-2-((2S)-2-(1-methyl-1H-pyrazol-4-yl)-4-morpholinyl)-4-(6-(trifluoromethyl)-3-pyridinyl)pteridine], the half-maximal effective concentration (EC50) is not above 50 nM; the “hTREM2 Emax” value is “+++ (Emax>150 and ≤250)”.

Consider `Cc1cc([C@H]2CN(c3nc(-c4ccc(Cl)cc4F)c4nc(C)c(C)nc4n3)CCO2)ccn1` [Example 23, 4-(4-chloro-2-fluorophenyl)-6,7-dimethyl-2-((2S)-2-(2-methyl-4-pyridinyl)-4-morpholinyl)pteridine], for which the concentration giving a half-maximal response (EC50) was not above 50 nM and the “hTREM2 Emax” value is on record as “++++ (Emax>250)”.

Turning to `Cc1cc([C@H]2CN(c3cc4nc(C)cnc4c(-c4ccc(Cl)cc4F)n3)CCO2)ccn1` [Example 77, 5-(4-chloro-2-fluorophenyl)-2-methyl-7-((2S)-2-(2-methyl-4-pyridinyl)-4-morpholinyl)pyrido[3,4-b]pyrazine], the 50% effective concentration (EC50) is not above 50 nM; the “hTREM2 Emax” value is “+++ (Emax>150 and ≤250)”.

For `Cc1ccc2c(-c3ccc(Cl)cc3F)nc(N3CCO[C@@H](c4cnn(C5CC5)c4)C3)cc2n1` [Example 150, 5-(4-chloro-2-fluorophenyl)-7-((2S)-2-(1-cyclopropyl-1H-pyrazol-4-yl)-4-morpholinyl)-2-methyl-1,6-naphthyridine], the EC50 lay within 50 to 500 nM and the “hTREM2 Emax” value was “++++ (Emax>250)”.

For the molecule `Cc1nc2nc(N3CCO[C@@H](c4cnn(C)c4)C3)nc(C3=CCC(C(F)(F)F)CC3)c2nc1C` (stereo partly drawn) [Example 254, (2S)-4-(6,7-dimethyl-4-(4-(trifluoromethyl)cyclohex-1-en-1-yl)pteridin-2-yl)-2-(1-methyl-1H-pyrazol-4-yl)morpholine], the EC50 lay in the range of 50 to 500 nM; the “hTREM2 Emax” value was “+++ (Emax>150 and ≤250)”.

As to `Cc1nc2cc([C@H]3C[C@@H](C)O[C@@H](c4cnn(C)c4)C3)nc(-c3ccc(Cl)cc3F)c2nc1C` (single isomer, unassigned) [Example 230], the concentration giving a half-maximal response (EC50) was 50 to 500 nM and the “hTREM2 Emax” value is “++++ (Emax>250)”.

Take `Cc1cc2c(OC[C@@H]3C[C@H]3C(F)(F)F)nc(N3CCO[C@@H](c4cnn(C)c4)C3)nc2nc1C` [Example 110, 6,7-dimethyl-2-((2S)-2-(1-methyl-1H-pyrazol-4-yl)-4-morpholinyl)-4-(((1R,2R)-2-(trifluoromethyl)cyclopropyl)methoxy)pyrido[2,3-d]pyrimidine]: the EC50 lay within 500 to 3000 nM; the “hTREM2 Emax” value was “+ (Emax>45 and ≤100)”.

Consider `Cc1nc2nc(N3CCO[C@@H](c4cnn(C)c4)C3)nc([C@H]3CC[C@H](C(F)(F)F)CC3)c2nc1C` [Example 132, 6,7-dimethyl-2-((2S)-2-(1-methyl-1H-pyrazol-4-yl)-4-morpholinyl)-4-(trans-4-(trifluoromethyl)cyclohexyl)pteridine], for which the 50% effective concentration (EC50) is not above 50 nM; the “hTREM2 Emax” value is “++ (Emax>100 and ≤150)”.

Regarding `Cc1cc2c(-c3ccc(Cl)cc3F)nc(C3CCO[C@H](c4cnn(C)c4)C3)nc2nc1C` (stereo in doubt) [Example 277, 4-(4-chloro-2-fluorophenyl)-6,7-dimethyl-2-((2S,4R)-2-(1-methyl-1H-pyrazol-4-yl)tetrahydro-2H-pyran-4-yl)pyrido[2,3-d]pyrimidine], the EC50 lay within 50 to 500 nM; the “hTREM2 Emax” value was “+++ (Emax>150 and ≤250)”.

With `Cc1cc([C@@H]2CN(c3nc(-c4ccc(Cl)cc4F)c4ccc(C)nc4n3)CCO2)cnn1` (single isomer, unassigned) [Example 87], the concentration for a half-maximal effect (EC50) lay within 50 to 500 nM and the “hTREM2 Emax” value is reported as “++++ (Emax>250)”.

Consider `Cc1nc2nc(N3CCO[C@@H](c4cnn(C)c4)C3)nc(-c3ccc(F)c(F)c3F)c2nc1C` [Example 61, 6,7-dimethyl-2-((2S)-2-(1-methyl-1H-pyrazol-4-yl)-4-morpholinyl)-4-(2,3,4-trifluorophenyl)pteridine], for which the EC50 is not above 50 nM; the “hTREM2 Emax” value was “+++ (Emax>150 and ≤250)”.

Consider `Cc1ccc2c(n1)nc(N1CCO[C@@H](c3cnn(C4CC4)c3)C1)nc2[C@H]1CC[C@@H](C(F)(F)F)CC1` [Example 144, 2-((2S)-2-(1-cyclopropyl-1H-pyrazol-4-yl)-4-morpholinyl)-7-methyl-4-(cis-4-(trifluoromethyl)cyclohexyl)pyrido [2,3-d]pyrimidine], for which the EC50 was 50 to 500 nM; the “hTREM2 Emax” value is “++ (Emax>100 and ≤150)”.

For the molecule `Cc1nc2nc(N3CCO[C@@H](c4cnn(C)c4)C3)nc([C@H]3C[C@@H](C(F)F)C3)c2nc1C` [Example 44, 4-(cis-3-(difluoromethyl)cyclobutyl)-6,7-dimethyl-2-((2S)-2-(1-methyl-1H-pyrazol-4-yl)-4-morpholinyl)pteridine], the half-maximal effective concentration (EC50) lay in the range of 50 to 500 nM; the “hTREM2 Emax” value was “+++ (Emax>150 and ≤250)”.

As for `Cc1nc2nc([C@@H]3C[C@@H](C)O[C@@H](c4cnn(C)c4)C3)cc(-c3ccc(Cl)cc3F)c2nc1C` [Example 284, 8-(4-chloro-2-fluorophenyl)-2,3-dimethyl-6-((2R,4R,6R)-2-methyl-6-(1-methyl-1H-pyrazol-4-yl)tetrahydro-2H-pyran-4-yl)pyrido[2,3-b]pyrazine], the EC50 lay within 50 to 500 nM; the “hTREM2 Emax” value was “+ (Emax>45 and ≤100)”.

As to `Cc1ccc2cc(N3CCO[C@@H](c4cnn(C)c4)C3)nc(-c3ccc(Cl)cc3F)c2c1` [Example 236, (S)-4-(1-(4-chloro-2-fluorophenyl)-7-methylisoquinolin-3-yl)-2-(1-methyl-1H-pyrazol-4-yl)morpholine], the EC50 lay in the range of 3000 to 100000 nM; the “hTREM2 Emax” value is “+++ (Emax>150 and ≤250)”.

Take `Cc1cnc2c(-c3ccc(Cl)cc3F)nc(N3CCO[C@@H](c4cnn(C)c4)C3)nc2n1` [Example 1, 4-(4-chloro-2-fluorophenyl)-7-methyl-2-((2S)-2-(1-methyl-1H-pyrazol-4-yl)-4-morpholinyl) pteridine]: the concentration for a half-maximal effect (EC50) was not above 50 nM and the “hTREM2 Emax” value is “++++ (Emax>250)”.

For `Cc1nc2cc([C@H]3CCO[C@@H](c4cnn(C)c4)C3)nc(-c3ccc(F)cc3F)c2nc1C` (single isomer, unassigned) [Example 195], the half-maximal effective concentration (EC50) was not above 50 nM and the “hTREM2 Emax” value is on record as “++++ (Emax>250)”.

`CN1Cc2c(-c3ccc(Cl)cc3F)cc(N3CCO[C@H](c4cnn(C)c4)C3)nc2C1=O` [Example 304, (R)-4-(4-chloro-2-fluorophenyl)-6-methyl-2-(2-(1-methyl-1H-pyrazol-4-yl)morpholino)-5,6-dihydro-7H-pyrrolo [3,4-b]pyridin-7-one]: the 50% effective concentration (EC50) lay within 500 to 3000 nM; the “hTREM2 Emax” value is “+++ (Emax>150 and ≤250)”.

Consider `Cc1cc2c(-c3ccc(F)cc3F)nc([C@@H]3CCO[C@@H](c4cnn(C)c4)C3)nc2nc1C` [Example 267, 4-(2,4-difluorophenyl)-6,7-dimethyl-2-((2R,4R)-2-(1-methyl-1H-pyrazol-4-yl)tetrahydro-2H-pyran-4-yl)pyrido[2,3-d]pyrimidine], for which the 50% effective concentration (EC50) fell in the range of 500 to 3000 nM; the “hTREM2 Emax” value was “++ (Emax>100 and ≤150)”.

On to `Cc1cnc2c(-c3ccc(Cl)cc3F)nc(N3CCO[C@@H](c4cnc(C)nc4)C3)nc2n1` [Example 4, 4-(4-chloro-2-fluorophenyl)-7-methyl-2-((2S)-2-(2-methyl-5-pyrimidinyl)-4-morpholinyl)pteridine], for which the EC50 fell in the range of 50 to 500 nM; the “hTREM2 Emax” value was “+++ (Emax>150 and ≤250)”.

For `Cc1cc([C@H]2CN(c3nc(C4CCC(F)(F)CC4)c4nc(C)c(C)nc4n3)CCO2)ccn1` [Example 139, 4-(4,4-difluorocyclohexyl)-6,7-dimethyl-2-((2S)-2-(2-methyl-4-pyridinyl)-4-morpholinyl)pteridine], the 50% effective concentration (EC50) was not above 50 nM; the “hTREM2 Emax” value is “+++ (Emax>150 and ≤250)”.

As to `Cc1cc([C@H]2CN(c3nc(C45CC(C(F)(F)F)(C4)C5)c4nc(C)c(C)nc4n3)CCO2)ccn1` [Example 65], the EC50 is not above 50 nM; the “hTREM2 Emax” value was “+++ (Emax>150 and ≤250)”.

Regarding `Cc1ccc(-c2nc([C@@H]3CCO[C@H](c4cnn(C)c4)C3)nc3nc(C)c(C)nc23)c(F)c1` (single isomer, unassigned) [Example 184], the concentration for a half-maximal effect (EC50) is 500 to 3000 nM; the “hTREM2 Emax” value is “+++ (Emax>150 and ≤250)”.

As for `Cc1cc2c(-c3ccc(F)cc3F)nc([C@H]3CCO[C@@H](c4cnn(C)c4)C3)nc2nc1C` (single isomer, unassigned) [Example 201], the concentration for a half-maximal effect (EC50) was not above 50 nM; the “hTREM2 Emax” value is “+++ (Emax>150 and ≤250)”.

Turning to `Cc1cc2c(-c3ccc(F)cc3F)nc(N3CCO[C@@H](c4cnn(C)c4)C3)nc2nc1C` [Example 166, 4-(2,4-difluorophenyl)-6,7-dimethyl-2((2S)-2-(1-methyl-1H-pyrazol-4-yl)-4-morpholinyl) pyrido[2,3-d]pyrimidine], the concentration giving a half-maximal response (EC50) is not above 50 nM and the “hTREM2 Emax” value is reported as “++++ (Emax>250)”.

With `Cc1cc2c(-c3ccc(Cl)cc3F)nc([C@H]3CCO[C@@H](c4cnn(C)c4)C3)nc2nc1C` (single isomer, unassigned) [Example 224], the 50% effective concentration (EC50) was not above 50 nM; the “hTREM2 Emax” value was “+++ (Emax>150 and ≤250)”.
